Measurements published in paper PMC8522701 (Journal of nuclear medicine : official publication, Society …, 2012).

Key:
[1] = tested on: VLA-4–negative MDA-MB-231/fluc human breast cancer tumor cells; test: Cellular uptake assay, VLA-4-negative MDA-MB-231/fluc cells; format: cell-based; details: coincubation with 1 μM nonradioactive ligand, 60 min, 37°C; P = 0.3
[2] = tested on: VLA-4–positive B16F10 mouse melanoma cells; test: Cellular uptake assay, VLA-4-positive B16F10 cells; format: cell-based; details: 60 min, 37°C, P < 0.05
[3] = tested on: Raji lymphoma mouse model; details: in vivo; cited from earlier work

^64Cu-labeled 11-bis(carboxymethyl)-1,4,8,11-tetraazabicyclo[6.6.2] hexadecane (CB-TE2A)-LLP2A [^64Cu-CB-TE2A-LLP2A]
blocking of cellular uptake with cold LLP2A in MDA-MB-231/fluc cells [1]: no significant blocking
cellular uptake (sum of internalized and cell surface-bound fractions) in B16F10 cells relative to MDA-MB-231 cells ([2]; 1 nM tracer, cpm/mg protein): higher
blocking of cellular uptake with cold LLP2A in B16F10 cells ([2]; coincubation with 1 μM nonradioactive ligand): blocking with cold LLP2A was observed
tracer uptake in tissues of Raji lymphoma mouse model [3]: uptake in the tumor, spleen, and bone marrow
